Measurements from US9834559B2, “4-Amino-6-phenyl-5,6-dihydroimidazo[1,5-a]pyrazin-3(2H)-one derivatives as inhibitors of beta-secretase (BACE)” (Janssen Pharmaceutica NV, priority 2013, dated 2017).

Legend:
[1] = biological target: recombinant BACE1 protein (Homo sapiens, UniProt P56817); experiment: BACE1 biochemical FRET based assay; settings: BACE1 0.04 μg/ml, 20 μM substrate, pH 5.0, 450 min; read-out: Biochemical FRET based assay pIC50 (converted)
Description: This assay is a Fluorescence Resonance Energy Transfer Assay (FRET) based assay. The substrate for this assay is an APP derived 13 amino acids peptide that contains the ‘Swedish’ Lys-Met/Asn-Leu mutation of the amyloid precursor protein (APP) beta-secretase cleavage site. This substrate also contains two fluorophores: (7-methoxycoumarin-4-yl) acetic acid (Mca) is a fluorescent donor with excitation wavelength at 320 nm and emission at 405 nm and 2,4-Dinitrophenyl (Dnp) is a proprietary quencher acceptor. […] Upon cleavage by BACE1, the fluorophore Mca is separated from the quenching group Dnp, restoring the full fluorescence yield of the donor. The increase in fluorescence is linearly related to the rate of proteolysis.
Briefly in a 384-well format recombinant BACE1 protein in a final concentration of 0.04 μg/ml is incubated for 450 minutes at room temperature with 20 μM substrate in incubation buffer (50 mM Citrate buffer pH 5.0, 0.05% PEG) in the presence of compound or DMSO. Next the amount of proteolysis is directly measured by fluorescence measurement (excitation at 320 nm and emission at 405 nm) at different incubation times (0, 30, 60, 90, 120 and 450 min). For every experiment a time curve (every 30 min between 0 min and 120 min) is used to determine the time where we find the lowest basal signal of the high control. The signal at this time (Tx) is used to subtract from the signal at 450 min. Results are expressed in RFU, as difference between T450 and Tx.
(§1) A best-fit curve is fitted by a minimum sum of squares method to the plot of % Controlmin versus compound concentration. From this an IC50 value (inhibitory concentration causing 50% inhibition of activity) can be obtained. • LC=Median of the low control values • =Low control: Reaction without enzyme • HC=Median of the High control values • =High Control: Reaction with enzyme • % Effect=100−[(sample−LC)/(HC−LC)*100] • % Control=(sample/HC)*100 • % Controlmin=(sample−LC)/(HC−LC)*100

[2] = test system: Abeta total produced and secreted by human neuroblastoma SKNBE2 cells expressing hAPP695; experiment: Cellular αLisa assay in SKNBE2 cells, Abeta total; assay type: cell-based; settings: 18 hours incubation, read-out: Cellular αLisa assay in SKNBE2 cells Abetatotal pIC50 (converted)
Protocol: In two αLisa assays the levels of Abeta total and Abeta 1-42 produced and secreted into the medium of human neuroblastoma SKNBE2 cells are quantified. The assay is based on the human neuroblastoma SKNBE2 expressing the wild type Amyloid Precursor Protein (hAPP695). The compounds are diluted and added to these cells, incubated for 18 hours and then measurements of Abeta 1-42 and Abeta total are taken. Abeta total and Abeta 1-42 are measured by sandwich αLisa. αLisa is a sandwich assay using biotinylated antibody AbN/25 attached to streptavidin coated beads and antibody Ab4G8 or cAb42/26 conjugated acceptor beads for the detection of Abeta total and Abeta 1-42 respectively. In the presence of Abeta total or Abeta 1-42, the beads come into close proximity. The excitation of the donor beads provokes the release of singlet oxygen molecules that trigger a cascade of energy transfer in the acceptor beads, resulting in light emission. Light emission is measured after 1 hour incubation (excitation at […] and emission at 615 nm).
as §1, with “cells preincubated” for “Reaction”, “compound, without biotinylated Ab in the αLisa” for “enzyme”, “cells preincubated without compound” for “Reaction with enzyme”

recombinant BACE1 protein, sequence (P56817 46-501): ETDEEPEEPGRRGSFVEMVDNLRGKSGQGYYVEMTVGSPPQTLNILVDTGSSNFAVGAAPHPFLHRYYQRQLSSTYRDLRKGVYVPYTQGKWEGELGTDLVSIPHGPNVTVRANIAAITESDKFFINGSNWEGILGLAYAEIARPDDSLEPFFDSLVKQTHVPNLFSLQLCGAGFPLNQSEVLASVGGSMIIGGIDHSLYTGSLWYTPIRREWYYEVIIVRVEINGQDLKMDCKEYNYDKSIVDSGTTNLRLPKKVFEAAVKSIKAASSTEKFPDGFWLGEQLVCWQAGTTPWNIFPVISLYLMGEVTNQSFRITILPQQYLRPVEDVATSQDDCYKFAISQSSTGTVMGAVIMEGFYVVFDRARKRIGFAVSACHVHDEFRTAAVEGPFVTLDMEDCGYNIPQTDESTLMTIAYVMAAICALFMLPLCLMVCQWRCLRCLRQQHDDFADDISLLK

| Structure (SMILES) | IC50 [1] | IC50 [2] |
| --- | --- | --- |
| Cn1cc2n(c1=O)C[C@@](C)(c1cc(NC(=O)c3ccc(C#N)cn3)ccc1F)N=C2N [Compound 1, N-{3-[(6R)-8-Amino-2,6-dimethyl-3-oxo-2,3,5,6-tetrahydroimidazo[1,5-a]pyrazin-6-yl]-4-fluorophenyl}-5-cyanopyridine-2-carboxamide] | 2.95 nM | 11.5 nM |
| Cc1nc(C(=O)Nc2ccc(F)c([C@]3(C)Cn4c(cn(C)c4=O)C(N)=N3)c2)co1 [Compound 3, N-{3-[(6R)-8-Amino-2,6-dimethyl-3-oxo-2,3,5,6-tetrahydroimidazo[1,5-a]pyrazin-6-yl]-4-fluorophenyl}-2-methyl-1,3-oxazole-4-carboxamide] | 9.55 nM | 52.5 nM |
| Cn1cc2n(c1=O)C[C@@](C)(c1cc(NC(=O)c3ccc(Cl)cn3)ccc1F)N=C2N [Compound 4, N-{3-[(6R)-8-amino-2,6-dimethyl-3-oxo-5H-imidazo[1,5-a]pyrazin-6-yl]-4-fluoro-phenyl}-5-chloro-pyridine-2-carboxamide] | 3.98 nM | 6.03 nM |
